Source: patent US6706947B2, “Method for screening for agents against cancer using an immunosuppression animal model” (Fremantle Hospital, priority 1996, dated 2004)
In brackets after ≈: the same amount, converted by molar mass.

What was measured:
HT-29 = conditions: HT-29, day 3 in culture, MTT
[1] = literature (Borel, 1989; Reynolds et al, 1992; Eichenberger et al, 1989a); cited from earlier work
[2] = Steady-state plasma concentrations of ketoconazole in sheep (hplc); type: in vivo
Protocol: Following the first dose on the first study day, venous blood samples (5 ml, anticoagulated with EDTA) were collected at 0.17, 0.33, 0.5, 0.75, 1, 2, 3, 4, 6, 8, 12, 15, 22, 27 and 32 h. […] Ketoconazole administration was continued throughout the latter blood sampling period.
Some blood samples taken on days 18-23 were centrifuged to yield plasma which was frozen at −20° C. until analysed for ketoconazole by a specific hplc method. Aliquots of plasma (0.1 ml) were vortexed vigorously with 1 ml acetonitrile (containing 8 mg of fluoxetine hydrochloride as internal standard) for 15 sec. The mixture was centrifuged at 1200 g for 10 min to sediment proteins, 0.5 ml of the supernatant was aspirated, transferred to a clean tube and evaporated to dryness at 50° C. using dry N2. The extract was reconstituted in 0.2 ml of hplc mobile phase and 0.02 ml aliquots were injected onto the hplc column. The hplc system consisted of a Merck RP Select B C18 column (25 cm×4.6 mm id), a mobile phase of 55% acetonitrile in 0.01% v/v H3PO4 and 0.01% W/V NaCl. The solvent was pumped at a flow rate of 1.5 ml/min and eluting compounds were detected by their UV absorbence at 210 nm.

B16M = conditions: day 3 in culture, MTT
SKMEL = conditions: day 3 in culture, MTT

- Steady-state concentration of ketoconazole in plasma (mean of trough samples) ([2]; sheep 14, days 18-23, ketoconazole 10 mg/kg po twice daily): 2.6 mg/L
- Steady-state concentration of ketoconazole in plasma (mean of trough samples) ([2]; sheep 15, days 18-23, ketoconazole 10 mg/kg po twice daily): 2.19 mg/L
- Steady-state concentration of ketoconazole in plasma (mean of trough samples) ([2]; sheep 16, days 18-23, ketoconazole 10 mg/kg po twice daily): 1.63 mg/L
- Steady-state concentration of ketoconazole in plasma (mean of trough samples) ([2]; sheep 17, days 18-23, ketoconazole 10 mg/kg po twice daily): 3.04 mg/L
Structure (SMILES): CC(=O)N1CCN(c2ccc(OCC3COC(Cn4ccnc4)(c4ccc(Cl)cc4Cl)O3)cc2)CC1 (centres unmarked) [Ketoconazole]
- ED50 (± SD) (HT-29): 12.7 ± 2.0 µg/mL (≈ 23.9 µM)
- Maximum therapeutic plasma concentration [1]: 0.10 µg/mL
- ED50 (± SD) (B16M): 18.2 ± 3.9 µg/mL (≈ 34.2 µM)
- ED50 (± SD) (SKMEL): 28.3 ± 1.7 µg/mL (≈ 53.3 µM)
